pIC50: −log10 of the molar value.
Columns and labels:
[1] = molecular target: T1, APOL1 G1 Protein (Homo sapiens, UniProt O14791, I384M/S342G); test: Trypanosoma brucei brucei Lysis Assay Using APOL1 Recombinant Protein (AlamarBlue viability); type: cell-based; settings: read-out: Trypanosomal Assay (IC50)
T1 sequence (O14791 28-398 S342G/I384M): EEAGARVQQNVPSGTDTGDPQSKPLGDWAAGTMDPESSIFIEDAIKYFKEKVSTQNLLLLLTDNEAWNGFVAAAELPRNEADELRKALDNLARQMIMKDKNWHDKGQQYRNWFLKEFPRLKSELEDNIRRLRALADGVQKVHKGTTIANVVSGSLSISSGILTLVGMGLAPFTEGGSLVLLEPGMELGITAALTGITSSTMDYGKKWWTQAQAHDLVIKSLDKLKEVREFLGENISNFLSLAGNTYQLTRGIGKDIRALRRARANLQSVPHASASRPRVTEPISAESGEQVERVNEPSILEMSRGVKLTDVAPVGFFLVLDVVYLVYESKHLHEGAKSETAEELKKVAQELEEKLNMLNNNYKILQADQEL
From the text: Trypanosoma brucei brucei is a blood stream parasite to which human, gorillas and baboon are immune due to the presence of the APOL1 protein in their HDL particles. The protein is uptaken by the parasite via the TbHpHb receptor located in its flagellar pocket and is bonded by the Hpr protein contained in the HDL particles which triggers the receptor endocytosis by the parasite.
Following endocytosis, the formed vesicle containing the HDL particle matures from early to late endosome, and subsequently to lysosome. The concomitant pH change in the lumen of the vesicle triggers the insertion of the APOL1 protein into the membrane of the late endosome/lysosome and hereby triggers lysosomal membrane permeabilization and as a further downstream event, trypanosome lysis. Trypanosoma brucei brucei is sensitive to lysis by all three APOL1 variants (G0, G1, and G2).
The Trypanosoma brucei brucei lysis assay is a lysis assay of the parasite using recombinant APOL1 protein variant followed by a fluorescent detection method of viability by the addition of AlamarBlue reagent to the assay well, a general metabolic redox indicator (AlamarBlue assay).
Briefly, the AlamarBlue active compound, the resazurin, a blue, water soluble, non-toxic and cell permeable molecule, which can be followed by absorbance, is reduced by various metabolic pathways into resorufin, a red compound which can be followed by either absorbance or fluorescence. The assay allows the calculation of the percent viability (percent of living Trypanosomes remaining in each well) at the end of a lysis relative to the untreated condition by interpolation of fluorescent values (FLU) on a standard curve with a known amount of seeded trypanosome/well.
Trypanosoma brucei brucei (ATCC, Cat. No. PRA-382) • Lister 427 VSG 221 bloodstream form.
Thaw/Expansion Media (ATCC Medium 2834 Modified HMI-9 Medium)
Assay Media (No Phenol Red/No FBS): Make on Day of Use
Hypoxanthine Stock (100×)-9 (10×)
Equipment • E1-Clip Tip pipette 12 channel adjustable 2-125 μL, Cat. No. 4672070BT • ThermoFisher MultiDrop 384, Cat. No. 5840300 • Multidrop • Agilent Bravo, Cat. No. G5409A • Bravo • SpectraMax M5
Trypanosoma brucei brucei Culture
Step 2, Day 4 • Centrifuge at 800×g for 5 minutes at room temperature. • Resuspend in 1 mL media. • Make a 1:25 fold dilution (10 μL/240 μL media). • Count on a hemocytometer (after adding parasites). • Let sit for 1-2 minutes for the parasites to settle. • Count should be approximately 100 viable motile parasites/16 grid or approximately 25×10^6 parasites/flask. • Passage the parasites by adding 1×10^6 parasites/T75 flask in 20 mL media. • Passage the parasites by adding 2.33×10^6 parasites/T175 flask in 46.6 mL media. • For every T75 flask should make enough for approximately 1.5×384 well assay plates. • For every T175 flask should make enough for approximately 3.8×384 well assay plates.
Step 3, Day 6 • Centrifuge at 800×g for 5 minutes. • Resuspend in 3 mL assay media (No phenol red, no FBS) per 75 starting flask. • Resuspend in 7 mL assay media (No phenol red, no FBS) per 175 flask • Make a 1:25 fold dilution. • Count by hemocytometer. • Every T75 flask set up should have approximately 75×10^6 parasites/flask (verify doubling time=8.7 hours±1 hour). • Every T175 flask set up should have approximately 175×10^6 parasites/flask (verify doubling time=8.7 hours±1 hour). • Require 46×10^6 parasites per 384 well plate (at 120,000 parasites per well). […]

[2] = molecular target: T2, G1 APOL1 (Homo sapiens, UniProt O14791, I384M/S342G); test: Acute APOL1 Thallium Assay with Inducible Stable Clones of HEK 293 Cells; type: cell-based; settings: HEK 293 inducible stable clones, G1 APOL1; read-out: Thallium Assay (IC50)
T2 construct: expressed in transfected cells
T2 sequence (O14791 28-398 S342G/I384M): T1 sequence (O14791 28-398 S342G/I384M)
How it was run: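 Pore activity was read as the fluorescence increase from Tl+ entering cells loaded with an AM-ester thallium indicator dye. The cells were tetracycline-inducible HEK293 T-Rex expressing G1 APOL1 (clone DC3.25), induced when plated at 26000 per well and incubated at 37° C.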

Structure (SMILES)	pIC50 [1]	pIC50 [2]
CN(CCO)C(=O)CCc1c(-c2ccc(F)cc2)[nH]c2c(F)cc(F)cc12 [Compound 143]	< 6.00	< 6.00
C[C@@H](O)[C@H](CO)NC(=O)CCc1c(-c2ccc(F)cc2)[nH]c2ccc(F)cc12 [Compound 38]	6.00 to 6.60	6.00 to 6.60
COCC1(NC(=O)CCc2c(-c3ccc(F)cc3)[nH]c3c(F)cc(F)cc23)CC1 [Compound 102]	6.00 to 6.60	6.00 to 6.60
O=C(CCc1c(-c2ccc(F)cc2)[nH]c2c(F)cc(F)cc12)NC1CCC1(F)F (stereo not shown) [Compound 124]	< 6.00	6.00 to 6.60
O=C(CCc1c(-c2ccc(F)cc2)[nH]c2c(F)cc(F)cc12)N[C@H](CO)C(F)(F)F [Compound 128]	6.00 to 6.60	
O=C(CCc1c(-c2ccc(F)cc2)[nH]c2ccccc12)NC1CC1 [Compound 238]	< 6.00	< 6.00
O=C(CCc1c(-c2ccc(F)cc2)[nH]c2c(F)cc(F)cc12)NCc1cocn1 [Compound 155]	< 6.00	< 6.00
O=C(CCc1c(-c2ccc(F)cc2)[nH]c2c(F)cc(F)cc12)Nc1cnoc1 [Compound 146]	< 6.00	< 6.00
Nc1ccnn1C(=O)CCc1c(-c2ccc(F)cc2)[nH]c2ccc(F)cc12 [Compound 6]	6.00 to 6.60	6.00 to 6.60
CC(=O)OCC(CO)NC(=O)CCc1c(-c2ccc(F)cc2)[nH]c2c(F)cc(F)cc12 (stereo not shown) [Compound 141]	6.00 to 6.60	6.00 to 6.60
CC1(NC(=O)CCc2c(-c3ccc(F)cc3)[nH]c3c(F)cc(F)cc23)CCOC1=O (racemic) [Compound 105]	6.00 to 6.60	< 6.00
O=C(CCc1c(-c2ccc(F)cc2)[nH]c2ccc(F)cc12)NC(CO)C1CC1 (stereo not shown) [Compound 21]	6.00 to 6.60	6.00 to 6.60
O=C(CCc1c(-c2ccc(F)cc2)[nH]c2c(F)cc(F)cc12)Nc1c[nH][nH]c1=O [Compound 97]	< 6.00	6.00 to 6.60
CN(CC(F)(F)F)C(=O)CCc1c(-c2ccc(F)cc2)[nH]c2c(F)cc(F)cc12 [Compound 166]	< 6.00	< 6.00
NCC1CCCCN1C(=O)CCc1c(-c2ccc(F)cc2)[nH]c2ccc(F)cc12 (stereo not shown) [Compound 53]	< 6.00	< 6.00
O=C(CCc1c(-c2ccc(F)cc2)[nH]c2ccc(F)cc12)N[C@H]1CC[C@@H]1O [Compound 29]	6.00 to 6.60	6.00 to 6.60
CC(=O)NCCSc1c(-c2ccc(F)cc2)[nH]c2ccccc12 [Compound 510, N-[2-[[2-(4-fluorophenyl)-1H-indol-3-yl]sulfanyl]ethyl]acetamide]	6.00 to 6.60	6.00 to 6.60
CC1(NC(=O)OC(C)(C)C)CCN(C(=O)CCc2c(-c3ccc(F)cc3)[nH]c3ccc(F)cc23)C1 (stereo not shown) [Compound 27]	< 6.00	< 6.00
O=C(CCc1c(-c2ccc(F)cc2)[nH]c2ccc(F)cc12)N1CCC(O)C1 (stereo not shown) [Compound 42]	< 6.00	< 6.00
Cc1cnc(NC(=O)CCc2c(-c3ccc(F)cc3)[nH]c3c(F)cc(F)cc23)s1 [Compound 178]	< 6.00	< 6.00
O=C(CCc1c(-c2ccc(F)cc2)[nH]c2c(F)cc(F)cc12)N1CCC[C@@H]1CO [Compound 117]	6.00 to 6.60	< 6.00
O=C(CCc1c(-c2ccc(F)cc2)[nH]c2c(F)cc(F)cc12)Nc1ccon1 [Compound 160]	< 6.00	< 6.00

Structure (SMILES)	pIC50 [1]	pIC50 [2]
CC(CO)N(C)C(=O)CCc1c(-c2ccc(F)cc2)[nH]c2ccc(F)cc12 (stereo not shown) [Compound 51]	< 6.00	< 6.00
NCCCc1c(-c2ccc(F)cc2)[nH]c2c(F)cc(F)cc12 [Compound 504, 3-[5,7-difluoro-2-(4-fluorophenyl)-1H-indol-3-yl]propan-1-amine]	> 6.60	6.00 to 6.60
CC(=O)NCCCc1c(-c2ccc(F)cc2)[nH]c2c(F)cc(F)cc12 [Compound 505, N-[3-[5,7-difluoro-2-(4-fluorophenyl)-1H-indol-3-yl]propyl]acetamide]	6.00 to 6.60	> 6.60
CC(C)(C)OC(=O)NC1CCC(NC(=O)CCc2c(-c3ccc(F)cc3)[nH]c3ccc(F)cc23)C1 (stereo not shown) [Compound 60]	< 6.00	< 6.00
O=C(CCc1c(-c2ccc(F)cc2)[nH]c2c(F)cc(F)cc12)Nc1cccnc1 [Compound 174]	< 6.00	< 6.00
CS(=O)(=O)CNC(=O)CCc1c(-c2ccc(F)cc2)[nH]c2c(F)cc(F)cc12 [Compound 173]	< 6.00	< 6.00
CC(C)(CO)NC(=O)CCc1c(-c2ccc(F)cc2)[nH]c2c(F)cc(F)cc12 [Compound 103]	6.00 to 6.60	6.00 to 6.60
CC1CC(NC(=O)CCc2c(-c3ccc(F)cc3)[nH]c3c(F)cc(F)cc23)C(=O)O1 (mixture of isomers) [Compound 189]	< 6.00	< 6.00
O=C(CCc1c(-c2ccc(F)cc2)[nH]c2c(F)cc(F)cc12)Nc1ccno1 [Compound 184]	< 6.00	< 6.00
CON(C)C(=O)CCc1c(-c2ccc(F)cc2)[nH]c2ccccc12 [Compound 237]	< 6.00	
O=C(NCCc1c(-c2ccc(F)cc2)[nH]c2c(F)cc(F)cc12)c1nc(C(F)(F)F)cs1 [Compound 368]		< 6.00
C[C@@H](CO)NC(=O)CCc1c(-c2ccc(F)cc2)[nH]c2c(F)cc(Cl)cc12 [Compound 203]		< 6.00
Cc1cc(F)c2[nH]c(-c3ccc(F)cc3)c(CCC(=O)NC(C#N)CO)c2c1 (stereo not shown) [Compound 215]		6.00 to 6.60
O=C(NCc1ccco1)OCCc1c(-c2ccc(F)cc2)[nH]c2c(F)cc(F)cc12 [Compound 481]		< 6.00
CC(O)CS(=O)(=O)NCCc1c(-c2ccc(F)cc2)[nH]c2c(F)cc(F)cc12 (stereo not shown) [Compound 421]		< 6.00
C[C@H](O)CC(=O)NCCc1c(-c2ccc(F)cc2)[nH]c2c(F)cc(F)cc12 [Compound 356]		< 6.00
CC(CCO)NC(=O)OCCc1c(-c2ccc(F)cc2)[nH]c2c(F)cc(F)cc12 (racemic) [Compound 457]		6.00 to 6.60
O=C(Cc1c(-c2ccc(F)cc2)[nH]c2ccccc12)NCC(O)CO (stereo not shown) [Compound 516, N-(2,3-dihydroxypropyl)-2-(2-(4-fluorophenyl)-1H-indol-3-yl)acetamide]		< 6.00
O=C1N[C@@H](C(=O)NCCc2c(-c3ccc(F)cc3)[nH]c3c(F)cc(F)cc23)CO1 [Compound 306, (4R)—N-[2-[5,7-difluoro-2-(4-fluorophenyl)-1H-indol-3-yl]ethyl]-2-oxo-oxazolidine-4-carboxamide]		< 6.00
Cn1cc(C(=O)NCCc2c(-c3ccc(F)cc3)[nH]c3c(F)cc(F)cc23)cn1 [Compound 391]		< 6.00
CC(CO)NC(=O)OCCc1c(-c2ccc(F)cc2)[nH]c2c(F)cc(F)cc12 (racemic) [Compound 439]		> 6.60

Source: patent US20230014907A1, “INHIBITORS OF APOL1 AND METHODS OF USING SAME” (Vertex Pharmaceuticals Incorporated, priority 2020, published 2023)
